The test system of one assay is Rattus norvegicus. Nature of the assay: Minimum effective dose(ip) required for inhibition of serotonin-induced bradycardic response in the Bezold-Jarisch reflex functional model. The settings on record: for minimal effective dose: Rattus norvegicus, ip, read-out: MED.
In assay [1] the target is 5-hydroxytryptamine receptor 4 (Rattus norvegicus, UniProt Q62758). In words: Compound was evaluated for the agonistic activity towards 5-hydroxytryptamine 4 receptor using the rat tunica muscularis mucosae (TMM) esophagus strip assay. Format: functional, tissue-based, Muscularis mucosa.
Assay [2] has as its target T1, 5-hydroxytryptamine receptor 3A (Rattus norvegicus, UniProt P35563).
T1 sequence (P35563 whole entry): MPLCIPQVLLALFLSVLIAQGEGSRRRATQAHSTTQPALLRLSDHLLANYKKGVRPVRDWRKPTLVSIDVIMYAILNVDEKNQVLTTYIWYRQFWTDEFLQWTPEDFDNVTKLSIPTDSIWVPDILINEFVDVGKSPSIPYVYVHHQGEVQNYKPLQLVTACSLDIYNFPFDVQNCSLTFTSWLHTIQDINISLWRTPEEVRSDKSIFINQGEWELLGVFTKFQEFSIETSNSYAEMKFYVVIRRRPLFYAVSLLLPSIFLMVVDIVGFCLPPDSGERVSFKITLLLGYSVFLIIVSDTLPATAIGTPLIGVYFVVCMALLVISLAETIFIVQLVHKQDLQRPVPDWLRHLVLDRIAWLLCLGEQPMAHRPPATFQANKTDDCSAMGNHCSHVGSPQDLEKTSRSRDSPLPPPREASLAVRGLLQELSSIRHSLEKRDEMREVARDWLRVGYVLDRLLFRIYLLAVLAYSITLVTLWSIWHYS
Nature of the assay: Compound was evaluated […] for the antagonistic activity towards 5-hydroxytryptamine 3 receptor. Format: functional.

One may read the EC50 as the concentration giving half of the maximal effect. As usually defined, the Ki is a measure of affinity in units of concentration, obtained from inhibition or displacement.

5-hydroxytryptamine receptor 4, sequence (Q62758 whole entry): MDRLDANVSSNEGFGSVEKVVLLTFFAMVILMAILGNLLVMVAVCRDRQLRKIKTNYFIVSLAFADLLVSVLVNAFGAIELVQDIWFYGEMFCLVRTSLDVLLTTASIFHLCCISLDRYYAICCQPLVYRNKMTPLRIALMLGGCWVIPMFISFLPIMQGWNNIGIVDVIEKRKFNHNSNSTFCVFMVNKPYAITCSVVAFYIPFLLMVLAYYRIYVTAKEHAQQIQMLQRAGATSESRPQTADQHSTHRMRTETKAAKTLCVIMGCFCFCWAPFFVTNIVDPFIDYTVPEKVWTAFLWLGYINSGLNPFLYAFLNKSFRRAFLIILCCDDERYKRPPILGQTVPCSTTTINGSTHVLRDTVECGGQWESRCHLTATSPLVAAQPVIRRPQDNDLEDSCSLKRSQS

Turning to `COc1cc(N)c(Cl)cc1C(=O)N[C@@H]1CCN(CCCOc2ccc(F)cc2)C[C@@H]1OC` [CISAPRIDE], the minimal effective dose in the assay on Rattus norvegicus was 5 mg/kg.

Regarding `COc1cc(N)c(Cl)cc1C(=O)N[C@@H]1C2CC3CN(C2)CC31` (some centres undefined), the half-maximal effective concentration (EC50) in assay [1] turned out to be 51.3 nM. This compound also registered an inhibitory constant (Ki) in assay [2] of 1.2 nM. Besides, the minimal effective dose in the assay on Rattus norvegicus is 0.01 mg/kg.

Consider `COc1cc(N)c(Cl)cc1C(=O)NC1C2CC3CC1CN(C3)C2` (stereo in doubt), for which the midpoint of the response in assay [1], the EC50, lay at 262 nM. In addition, the affinity in assay [2], expressed as Ki, was 9 nM. For the same compound, the MED in the assay on Rattus norvegicus stood at 0.03 mg/kg.

`COc1cc(N)c(Cl)cc1C(=O)N[C@H]1C2CC3CN(C2)CC31` (some centres undefined) showed a concentration giving a half-maximal response (EC50) in assay [1] of 3870 nM. Affinity in assay [2] was put at a Ki of 3.9 nM. In the assay on Rattus norvegicus, the minimal effective dose was 0.01 mg/kg.

`COc1cc(N)c(Cl)cc1C(=O)NC1CCN2CCCC1C2` (centres undefined) [RENZAPRIDE] returned an EC50 in assay [1] of 98 nM. In assay [2], this compound yielded a Ki of 5.6 nM. In addition, the minimal effective dose in the assay with Rattus norvegicus was 0.25 mg/kg.

Take `COc1cc(N)c(Cl)cc1C(=O)N[C@@H]1CN2CCC1CC2`: a half-maximal response in assay [1] (EC50) required 203 nM. For the same compound, the inhibition constant Ki in assay [2] was 0.23 nM. For the same compound, the minimal effective dose in the assay on Rattus norvegicus amounted to 0.3 mg/kg.

For the compound `COc1cc(N)c(Cl)cc1C(=O)NC1C2CC3CC1CN(C3)C2` (stereo in doubt; 1A), the midpoint of the response in assay [1], the EC50, lay at 538 nM. The same compound had an inhibition constant Ki in assay [2] of 336 nM. The same compound had an MED in the assay with Rattus norvegicus of 10 mg/kg.

The values are drawn from ChEMBL document CHEMBL1126380, “New aza(nor)adamantanes are agonists at the newly identified serotonin 5-HT4 receptor and antagonists at the 5-HT3 receptor” (Bioorg Med Chem Lett, 1992).
